Measured values: patent US20110091531A1, “Cooling Composition” (GIV AUDAN SA, priority 2008, published 2011)

Experiment: Solubility of Evercool 180 alone in solvent under regular conditions
Type: physicochemical

For CC(C)[C@@H]1CC[C@@H](C)C[C@H]1C(=O)Nc1ccc(CC#N)cc1 [Evercool™ 180, (1R,2S,5R)—N-(4-(cyanomethyl)phenyl)-2-isopropyl-5-methylcyclohexane-carboxamide], the Soluble in menthol (at 65° C. under regular conditions) was 17%, the “Soluble in peppermint oil” value (at room temperature under regular conditions) was 12% and the “Solubility in Orange oil (1× Brazilian)” value (under regular conditions) was > 1%.
